Laboratory results published in the supplement of paper PMC4380931.
± gives the standard deviation of the averaged measurements.

What was measured:
Assay in all cases: apoptotic fraction of cells (caspase-3 NucView488 positive); higher = more apoptosis
K2 = tested on: K2
Protocol: (§1)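 BRAF V600E/D melanoma cell lines were seeded in 96-well plates, treated in 4 replicates with seven doses (3.16 nM to 3.16 uM) of RAF/MEK inhibitors for 24, 48 or 72 h, and stained with Hoechst 33342 (nuclei) and DEVD-NucView488 caspase-3 substrate. Plates were imaged on an Operetta. Relative viability is the cell count normalised to a DMSO-treated control; apoptosis fraction is the fraction of NucView488-positive nuclei.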

MZ7MEL = tested on: MZ7MEL
Protocol: as §1

WM1552C = tested on: WM1552C
Protocol: as §1

LOXIMVI = tested on: LOXIMVI
Protocol: as §1

SMILES: CCCS(=O)(=O)Nc1ccc(F)c(C(=O)c2c[nH]c3ncc(-c4ccc(Cl)cc4)cc23)c1F [Vemurafenib]
- apoptotic fraction of cells (K2; 24 h, 0.00316 µM): 0.00416 ± 0.00064
- apoptotic fraction of cells (K2; 24 h, 0.01 µM): 0.00233 ± 0.00052
- apoptotic fraction of cells (K2; 24 h, 0.0316 µM): 0.00265 ± 0.0012
- apoptotic fraction of cells (K2; 24 h, 0.1 µM): 0.00174 ± 0.00056
- apoptotic fraction of cells (K2; 24 h, 0.316 µM): 0.00473 ± 0.0021
- apoptotic fraction of cells (K2; 24 h, 1 µM): 0.0444 ± 0.018
- apoptotic fraction of cells (K2; 24 h, 3.16 µM): 0.183 ± 0.023
- apoptotic fraction of cells (K2; 48 h, 0.00316 µM): 0.00306 ± 0.0014
- apoptotic fraction of cells (K2; 48 h, 0.01 µM): 0.00257 ± 0.0014
- apoptotic fraction of cells (K2; 48 h, 0.0316 µM): 0.00173 ± 0.00032
- apoptotic fraction of cells (K2; 48 h, 0.1 µM): 0.00229 ± 0.001
- apoptotic fraction of cells (K2; 48 h, 0.316 µM): 0.0116 ± 0.0029
- apoptotic fraction of cells (K2; 48 h, 1 µM): 0.0823 ± 0.027
- apoptotic fraction of cells (K2; 48 h, 3.16 µM): 0.237 ± 0.036
- apoptotic fraction of cells (MZ7MEL; 24 h, 0.00316 µM): 0.0137 ± 0.0022
- apoptotic fraction of cells (MZ7MEL; 24 h, 0.01 µM): 0.0131 ± 0.0055
- apoptotic fraction of cells (MZ7MEL; 24 h, 0.0316 µM): 0.00722 ± 0.0034
- apoptotic fraction of cells (MZ7MEL; 24 h, 0.1 µM): 0.00978 ± 0.0037
- apoptotic fraction of cells (MZ7MEL; 24 h, 0.316 µM): 0.0118 ± 0.004
- apoptotic fraction of cells (MZ7MEL; 24 h, 1 µM): 0.0206 ± 0.0059
- apoptotic fraction of cells (MZ7MEL; 24 h, 3.16 µM): 0.0379 ± 0.0074
- apoptotic fraction of cells (MZ7MEL; 48 h, 0.00316 µM): 0.0184 ± 0.007
- apoptotic fraction of cells (MZ7MEL; 48 h, 0.01 µM): 0.0167 ± 0.0068
- apoptotic fraction of cells (MZ7MEL; 48 h, 0.0316 µM): 0.0196 ± 0.0087
- apoptotic fraction of cells (MZ7MEL; 48 h, 0.1 µM): 0.0148 ± 0.01
- apoptotic fraction of cells (MZ7MEL; 48 h, 0.316 µM): 0.0203 ± 0.008
- apoptotic fraction of cells (MZ7MEL; 48 h, 1 µM): 0.0385 ± 0.018
- apoptotic fraction of cells (MZ7MEL; 48 h, 3.16 µM): 0.0682 ± 0.024
- apoptotic fraction of cells (MZ7MEL; 72 h, 0.00316 µM): 0.0218 ± 0.0078
- apoptotic fraction of cells (MZ7MEL; 72 h, 0.01 µM): 0.0158 ± 0.0011
- apoptotic fraction of cells (MZ7MEL; 72 h, 0.0316 µM): 0.0159 ± 0.0089
- apoptotic fraction of cells (MZ7MEL; 72 h, 0.1 µM): 0.0167 ± 0.0062
- apoptotic fraction of cells (MZ7MEL; 72 h, 0.316 µM): 0.0378 ± 0.005
- apoptotic fraction of cells (MZ7MEL; 72 h, 1 µM): 0.103 ± 0.0068
- apoptotic fraction of cells (MZ7MEL; 72 h, 3.16 µM): 0.193 ± 0.025
- apoptotic fraction of cells (WM1552C; 24 h, 0.00316 µM): 0.0617 ± 0.014
- apoptotic fraction of cells (WM1552C; 24 h, 0.01 µM): 0.0655 ± 0.0029
- apoptotic fraction of cells (WM1552C; 24 h, 0.0316 µM): 0.0602 ± 0.0019
- apoptotic fraction of cells (WM1552C; 24 h, 0.1 µM): 0.0665 ± 0.006
- apoptotic fraction of cells (WM1552C; 24 h, 0.316 µM): 0.0682 ± 0.013
- apoptotic fraction of cells (WM1552C; 24 h, 1 µM): 0.0745 ± 0.011
- apoptotic fraction of cells (WM1552C; 24 h, 3.16 µM): 0.0696 ± 0.0058
- apoptotic fraction of cells (WM1552C; 48 h, 0.00316 µM): 0.078 ± 0.009
- apoptotic fraction of cells (WM1552C; 48 h, 0.01 µM): 0.0701 ± 0.01
- apoptotic fraction of cells (WM1552C; 48 h, 0.0316 µM): 0.0688 ± 0.0095
- apoptotic fraction of cells (WM1552C; 48 h, 0.1 µM): 0.0684 ± 0.011
- apoptotic fraction of cells (WM1552C; 48 h, 0.316 µM): 0.063 ± 0.011
- apoptotic fraction of cells (WM1552C; 48 h, 1 µM): 0.0641 ± 0.017
- apoptotic fraction of cells (WM1552C; 48 h, 3.16 µM): 0.0951 ± 0.018
- apoptotic fraction of cells (WM1552C; 72 h, 0.00316 µM): 0.088 ± 0.0055
- apoptotic fraction of cells (WM1552C; 72 h, 0.01 µM): 0.0756 ± 0.014
- apoptotic fraction of cells (WM1552C; 72 h, 0.0316 µM): 0.0733 ± 0.0083
- apoptotic fraction of cells (WM1552C; 72 h, 0.1 µM): 0.0668 ± 0.0043
- apoptotic fraction of cells (WM1552C; 72 h, 0.316 µM): 0.0671 ± 0.0047
- apoptotic fraction of cells (WM1552C; 72 h, 1 µM): 0.0874 ± 0.0044
- apoptotic fraction of cells (WM1552C; 72 h, 3.16 µM): 0.164 ± 0.01
- apoptotic fraction of cells (LOXIMVI; 24 h, 0.00316 µM): 0.0511 ± 0.0072
- apoptotic fraction of cells (LOXIMVI; 24 h, 0.01 µM): 0.0524 ± 0.011
- apoptotic fraction of cells (LOXIMVI; 24 h, 0.0316 µM): 0.0364 ± 0.0068
- apoptotic fraction of cells (LOXIMVI; 24 h, 0.1 µM): 0.0578 ± 0.005
- apoptotic fraction of cells (LOXIMVI; 24 h, 0.316 µM): 0.0383 ± 0.0056
- apoptotic fraction of cells (LOXIMVI; 24 h, 1 µM): 0.0551 ± 0.0094
- apoptotic fraction of cells (LOXIMVI; 24 h, 3.16 µM): 0.0557 ± 0.016
- apoptotic fraction of cells (LOXIMVI; 48 h, 0.00316 µM): 0.103 ± 0.023
- apoptotic fraction of cells (LOXIMVI; 48 h, 0.01 µM): 0.0517 ± 0.004
- apoptotic fraction of cells (LOXIMVI; 48 h, 0.0316 µM): 0.0505 ± 0.0036
